Data reported in patent publication US4716159A, “Pyridazino[4,3-c]-isoquinolines having anti-anxiety activity” (Gruppo Lepetit, S.p.A., priority 1983, dated 1987).

Tests used:
[1] = target: benzodiazepine receptor; experiment: benzodiazepine receptor test (displacement of 3H-diazepam from rat brain receptors); type: binding; details: for Ki: 3H-diazepam, unit inferred; for Inhibition % of the 3H diazepam binding: test compound at 3,6 μM
Description: The anti-anxiety activity of the compounds of the present invention was first detected by submitting some representative compounds to the benzodiazepine receptor test. […] Our experiments were carried out by following the method described by H. Moand T. Okada in Life Sciences, Vol. 20, 2101-2110 (1977).
of the test compound of 3,6 μM.

[2] = test system: rats; experiment: conflict test in rats (punished responding, Vogel method as modified by Lippa); type: in vivo, rat; details: i.p., 60 minutes after administration; for minimal effective dose: Rattus norvegicus, ip, 1 h, read-out: MED (minimal effective dose which significantly increased the number of shocks)
Description: The ability of the compounds of the present invention to increase punished responding in animals in a conflict situation, a procedure with high validity for predicting the anxiolytic effect of drugs, was assessed by testing these compounds in rats according to the method described by J. R. Vogel, B. Beer, D. E. Clody in Psycopharmacologia 21, 1-7, (1971) as modified by A. S. Lippa et al., in "Anxiolytics, Industrial Pharmacology",Vol. 3, Futura Publishing, 1979, pages 41-81.
Briefly, rats are deprived of water for 48 hours and deprived of food for 20 hours prior to testing. Sixty minutes after administration of the test compound each rat is placed in an specially equipped cage. A glucose solution is available from a tap located in the rear of the cage. A constant pulsating shocking current is connected between the grid floor and the tap. Each rat is allowed 20 seconds of non-shocked drinking, then cycles of 5 seconds shock-off and 5 seconds shock-on began. During the shock-on period each lick on the top is accompanied by shock. The number of shocks received by each animal is recorded and minimal effective doses are determined.

[3] = test system: mice; experiment: antipentylenetetrazole assay in mice; type: in vivo; details: for prevention of tonic extensor seizures (pentylenetetrazole): pentylenetetrazole 140 mg/kg s.c., compound 30 min before
Description: The antipentylenetetrazole assay in mice have been carried out by essentially following the methodology described by Berger in J. Pharm. Exptl. Ther. 104, 468, (1952). A fatal dose of pentylenetetrazole (140 mg/kg, s.c.) was administered to groups of ten mice each, treated, 30 minutes before the administration of the convulsant agent, with a selected dose of the test compound.

[4] = test system: mice; experiment: anti-bicuculline test in mice; type: in vivo; details: for prevention of seizures (bicuculline): i.p. (highest dose tested), bicuculline 2 mg/kg s.c., compound 30 min before
Description: The experiments were conducted essentially following the methodology described by P. De La Mora et R. Tapia in Biochem. Pharmac. 22, 2635-2639 (1973). A dose of bicuculline (2 mg/kg, s.c.) was administered to groups of ten mice each which had been given a fixed dose of the text compound 30 minutes before treatment. […] The significance of this fact has not yet been completely clarified since it was first described only recently for two quinoline derivatives (see G. Le Fur et al., Life Sci., 28, 1439-1448 (1981)). […] The favourable pharmacological properties of the compounds of the present invention are accompanied by a generally low toxicity, as in fact the acute toxicity of the compounds of the present invention is in general from 200 to more than 600 mg/kg, i.p. In view of the above, the use of the compounds of the present invention as anticonvulsant and antianxiety agents is a further specific object of the present invention. With the term "use" it is intended to refer to all industrially applicable aspects and acts of said use, including the embodiment of the novel compounds into pharmaceutical compositions.

[5] = 100 mg/kg (highest dose tested)

Molecule | Ki [1] | prevention of tonic extensor seizures (pentylenetetrazole) ([3]; 50 mg/kg (highest dose tested)) | prevention of seizures (bicuculline) ([4]; 100 mg/kg) | minimal effective dose [2] | Inhibition % of the 3H diazepam binding [1] | other results
CCOc1nc2cc(-c3ccccc3)nnc2c2ccccc12 [Example 9, 6-Ethoxy-3-phenyl-pyridazino [4,3-c]isoquinoline] | 1480 nM | – | – | – | – | –
3-Methyl-pyridazino[4,3-c]isoquinoline [Example 32] | 245 nM | uneffective | failed to prevent seizures | – | – | MED (minimal effective dose which significantly increased the number of shocks) [2]: 20 Mg/Kg
COc1ccc(-c2cc3nc(N(C)CC(C)O)c4ccccc4c3nn2)cc1 (centres unmarked) [Example 14] | 221 nM | uneffective | failed to prevent seizures | 30 mg/kg | – | –
CCOC(=O)C1CCN(c2nc3cc(-c4ccc(OC)cc4)nnc3c3ccccc23)CC1 [Example 21] | – | – | – | – | -39% | –
CC(C)Oc1nc2cc(-c3ccccc3)nnc2c2ccccc12 [Example 10] | 1900 nM | – | – | – | – | –
COc1ccc(-c2cc3nc(N4CCOCC4)c4ccccc4c3nn2)cc1 [Example 20, 3-(4-Methoxyphenyl)-6-(4-morpholinyl)-pyridazino[4,3-c]isoquinoline] | – | uneffective | failed to prevent seizures | 30 mg/kg | -76% | –
COCCN(CCOC)c1nc2cc(-c3ccc(OC)cc3)nnc2c2ccccc12 [Example 15, N,N-bis(2-methoxyethyl)-3-(4-methoxyphenyl)pyridazino[4,3-c]isoquinolin-6-amine] | 1180 nM | uneffective | failed to prevent seizures | 10 mg/kg | – | –
Clc1ccc(-c2cc3nc(N4CCCC4)c4ccccc4c3nn2)cc1 [Example 27, 3-(4-Chlorophenyl)-6-(l-pyrrolidinyl)pyridazino[4,3-c]isoquinoline] | – | – | – | – | -63% | –
COc1ccc(-c2cc3nc(N4CCCCC4)c4ccccc4c3nn2)cc1 [Example 19, 3-(4-Methoxyphenyl)-6-(1-piperidinyl)-pyridazino[4,3-c]isoquinoline] | – | uneffective | failed to prevent seizures | 10 mg/kg | -70% | –
CN(C)c1nc2cc(-c3ccccc3)nnc2c2ccccc12 [Example 2, 3-Phenyl-N,N-dimethyl-pyridazino-[4,3-c]-isoquinolin-6-amine] | 28.4 nM | uneffective | failed to prevent seizures | 10 mg/kg | – | –
CCN(C)c1nc2cc(-c3ccccc3)nnc2c2ccccc12 [Example 3, N-ethyl-3-phenyl-N-methylpyridazino-[4,3-c]-isoquinolin-6-amine] | 65.2 nM | – | – | 10 mg/kg | – | prevention of tonic extensor seizures (pentylenetetrazole) [3, 5]: failed to prevent tonic extensor seizures; prevention of seizures (bicuculline) ([4]; 50 mg/kg): uneffective
Clc1nc2cc(-c3ccccc3)nnc2c2ccccc12 [Example 1, 6-Chloro-3-phenyl-pyridazino-[4,3-c]-isoquinoline] | – | – | – | – | -36% | –
CCOC(=O)N1CCN(c2nc3cc(-c4ccc(OC)cc4)nnc3c3ccccc23)CC1 [Example 22] | – | – | – | – | -61% | –
COCCOc1nc2cc(-c3ccc(OC)cc3)nnc2c2ccccc12 [Example 24, 6-(2-Methoxyethoxy)-3-(4-methoxyphenyl)pyridazino[4,3-c]isoquinoline] | – | – | – | – | -47% | –
CN1C(=O)CN=C(c2ccccc2)c2cc(Cl)ccc21 [Diazepam, reference compound] | – | – | – | – | – | ED50 ([3]; Mus musculus, ip, 0.5 h, i.p., same experiment, read-out: ED50 (dose which prevents tonic extension seizures in 50% of the treated animals), pentylenetetrazole): 0.2 mg/kg; ED50 ([4]; Mus musculus, ip, 0.5 h, i.p., same experiment, read-out: ED50 (dose which prevents tonic extensor seizures in 50% of the treated animals), bicuculline): 0.18 mg/kg
c1ccc(-c2cc3nc(N4CCCC4)c4ccccc4c3nn2)cc1 [Example 5, 3-phenyl-6-(1-pyrrolidinyl)pyridazino-[4,3-c]isoquinoline] | 11.4 nM | – | – | 5 mg/kg | – | prevention of tonic extensor seizures (pentylenetetrazole) [3, 5]: failed to prevent tonic extensor seizures; prevention of seizures (bicuculline) ([4]; 50 mg/kg): uneffective
CC(O)CN(C)c1nc2cc(-c3ccccc3)nnc2c2ccccc12 (centres unmarked) [Example 4, 1-[(3-Phenyl-pyridazino[4,3-c]isoquinolin-6-yl)methylamino]-2-propanol] | 136 nM | – | – | 30 mg/kg | – | prevention of tonic extensor seizures (pentylenetetrazole) [3, 5]: failed to prevent tonic extensor seizures; prevention of seizures (bicuculline) ([4]; 50 mg/kg): uneffective
COc1ccc(-c2cc3nc(N(C)C)c4ccccc4c3nn2)cc1 [Example 13, N,N-dimethyl-3-(4-methoxyphenyl)pyridazino[4,3-c]isoquinolin-6-amine] | 63.3 nM | uneffective | failed to prevent seizures | 10 mg/kg | – | –
COc1ccc(-c2cc3nc(N4CCCC4)c4ccccc4c3nn2)cc1 [Example 18] | 18.7 nM | uneffective | failed to prevent seizures | 20 mg/kg | – | –
COc1ccc(-c2cc3nc(N4CCC4)c4ccccc4c3nn2)cc1 [Example 17, 6-(1-Azetidinyl)-3-(4-methoxyphenyl)pyridazino[4,3-c]isoquinoline] | 130 nM | uneffective | failed to prevent seizures | 30 mg/kg | – | –
c1ccc(-c2cc3nc(N4CCOCC4)c4ccccc4c3nn2)cc1 [Example 6, 3-Phenyl-6-(4-morpholinyl)pyridazino[4,3-c]-isoquinoline] | 152 nM | – | – | 15 mg/kg | – | prevention of tonic extensor seizures (pentylenetetrazole) [3, 5]: failed to prevent tonic extensor seizures; prevention of seizures (bicuculline) ([4]; 50 mg/kg): uneffective
CCOC(=O)CCCN(C)c1nc2cc(-c3ccc(OC)cc3)nnc2c2ccccc12 [Example 16] | – | – | – | – | -69% | –
